How the values were obtained:
[1] = target: T1, p38 MAPKα isoform (MAPK14) (Homo sapiens (Human), UniProt Q16539); assay: p38 MAPKα enzyme inhibition (FRET, Z-LYTE), Method 2; format: biochemical; conditions: Method 2, different laboratory (Table 4a2)
GSK 3α = GSK 3α (Homo sapiens (Human), UniProt P49840); assay: GSK 3α enzyme inhibition (FRET, Z-LYTE), Method 2; format: biochemical; conditions: Method 2, different laboratory (Table 4a2); read-out: IC50 Values for Enzyme Inhibition GSK3α
Description: The enzyme inhibitory activities of compounds disclosed herein are determined by FRET using synthetic peptides labelled with both donor and acceptor fluorophores (Z-LYTE, Invitrogen Ltd., Paisley, UK).
The inhibitory activities of compounds of the invention against the GSK 3α enzyme isoform (Invitrogen), are evaluated by determining the level of activation/phosphorylation of the target peptide. The GSK3-α protein (500 ng/mL, 2.5 μL) is mixed with the test compound (2.5 μL at either 4 μg/mL, 0.4 μg/mL, 0.04 μg/mL, or 0.004 μg/mL) for 2 hr at RT. The FRET peptide (8 μM, 2.5 μL), which is a phosphorylation target for GSK3α, and ATP (40 μM, 2.5 μL) are then added to the enzyme/compound mixture and the resulting mixture incubated for 1 hr. Development reagent (protease, 5 μL) is added for 1 hr prior to detection in a fluorescence microplate reader (Varioskan® Flash, ThermoFisher Scientific).
In all cases, the site-specific protease cleaves non-phosphorylated peptide only and eliminates the FRET signal. Phosphorylation levels of each reaction are calculated using the ratio of coumarin emission (donor) over fluorescein emission (acceptor), for which high ratios indicate high phosphorylation and low ratios indicate low phosphorylation levels.

mice = assay: Mouse cigarette smoke model (macrophage and neutrophil accumulation in BALF); format: in vivo; conditions: tobacco smoke, mice; for Cell numbers in BAL Macrophage / Cell numbers in BAL Neutrophil: mean ± SEM, N = 6
Source text: The result of treatment with compound Example (8) on macrophage and neutrophil accumulation in BALF in the mouse cigarette smoke model was investigated (Table 5).

[2] = target: T1, p38 MAPKα isoform (MAPK14); assay: p38 MAPKα enzyme inhibition (FRET, Z-LYTE), Method 1; format: biochemical; conditions: Method 1 (Table 4a1)
Balb/c mice = assay: (A) LPS-induced neutrophil accumulation in mice; format: in vivo, mouse; conditions: mice; for Neutrophil numbers in BAL: N = 8
Description: […] At T=0, mice are placed into an exposure chamber and exposed to LPS (7.0 mL, 0.5 mg/mL solution in PBS) for 30 min). After a further 8 hr the animals are anesthetized, their tracheas cannulated and BALF extracted by infusing and then withdrawing from their lungs 1.0 mL of PBS via the tracheal catheter. Total and differential white cell counts in the BALF samples are measured using a Neubaur haemocytometer. Cytospin smears of the BALF samples are prepared by centrifugation at 200 rpm for 5 min at RT and stained using a DiffQuik stain system (Dade Behring). Cells are counted using oil immersion microscopy. Data for neutrophil numbers in BAL are shown as mean±S.E.M. (standard error of the mean). The percentage inhibition of neutrophil accumulation is calculated for each treatment relative to vehicle treatment.

[3] = system: Differentiated U937 cells; assay: (l) Cell viability: MTT assay; format: cell-based, human; conditions: 1 μg/mL
Outline: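 Differentiated U937 cells were exposed to compound at 1 or 10 μg/mL either 4 h in 5% FCS RPMI1640 or 24 h in 10% FCS RPMI1640, then given MTT for 1 h, DMSO-solubilised and read at 550 nm. Percent viability loss versus 0.5% DMSO vehicle; apparent gains appear negative.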

[4] = Cryopreserved hepatocyte stability; format: in vitro ADME; conditions: scaled from intrinsic clearance, mean of two experiments
Description: (§1) Formulae CIint(tissue clearance) mL/min/kg=[0.693/t½(min)]×[1/microsomal protein concentration mg/mL]×[mg microsomes/g liver]×[g liver/kg body weight] […] The incubations were performed at 37° C. with 100 μL samples taken from the incubation, at 0, 10, 20, 45 and 90 minutes, and reactions terminated by addition of 100 μL of acetonitrile containing carbamazepine as analytical internal standard. […] Half-life values were calculated from the relationship T1/2(min)=−0.693/λ • where λ was the slope of the Ln concentration vs time curve. • Standard compounds testosterone, midazolam and 4-methylumbelliferone are included in the assay design.
CIint(Tissue Clearance) mL/min/kg=[0.693/t½(min)]×[1/hepatocyte concentration (million cells/mL)]×[million cells/g liver]×[g liver/kg body weight] CIint(Hepatic clearance) mL/min/kg=hepatic blood flow×CIint/(hepatic blood flow+CIint) Hepatic extraction ratio (Eh)=CIint(Hepatic clearance) mL/min/kg/hepatic blood flow (mL/min/kg)

[5] = Hepatic microsomal stability; format: in vitro ADME, human
Description: (§2) • Microsomal stability assays were performed with incubations of test compounds at 0.1 μM (n=2, final DMSO concentration 0.25%), and carried out using pooled human, dog and rat hepatic microsomes from Xenotech (Lots 1210153, 0810143 and 1110042, respectively) at 0.25 mg protein/mL in the presence of co-factor, NADPH. The incubations were performed at 37° C. with 100 μL aliquots taken from the incubation, at 0, 2, 5, 10 and 20 minutes and reactions terminated by addition of 100 μL of acetonitrile containing carbamazepine as analytical internal standard. […] Half-life values were calculated from the relationship T1/2(min)=−0.693/λ • where λ was the slope of the Ln concentration vs time curve. • The in vitro intrinsic clearance, CIint (mL/min/kg), was calculated and scaled to hepatic extraction ratios using the following scaling parameters and formulae.
as §1

[6] = system: β-catenin in d-U937 cells; assay: (m) Accumulation of β catenin in d-U937 cells; format: cell-based, human
Description: U937 cells, a human monocytic cell line, are differentiated into macrophage-type cells by incubation with PMA; (100 ng/mL) for between 48 to 72 hr. The cells are then incubated with either final concentrations of test compound or vehicle for 18 hr. The induction of β-catenin by the test compounds is stopped by replacing the media with 4% formaldehyde solution. Endogenous peroxide activity is neutralised by incubating with quenching buffer (100 μL, 0.1% sodium azide, 1% H2O2 in PBS with 0.05% Tween-20) for 20 min. The cells are washed with washing buffer (200 μL; PBS containing 0.05% Tween-20) and incubated with blocking solution (200 μL; 5% milk in PBS) for 1 hr, re-washed with washing buffer (200 μL) and then incubated overnight with anti-β-catenin antibody solution (50 μL) in 1% BSA/PBS (BD, Oxford, UK).
After washing with washing buffer (3×200 μL; PBS containing 0.05% Tween-20), cells are incubated with an HRP-conjugated secondary antibody solution (100 μL) in 1% BSA/PBS (Dako, Cambridge, UK) and the resultant signal is determined colourimetrically (OD: 450 nm with a reference wavelength of 655 nm) using TMB substrate (50 μL; R&D Systems, Abingdon, UK). This reaction is stopped by addition of 1N H2SO4 solution (50 μL). Cells are then washed with washing buffer and 2% crystal violet solution (50 μL) is applied for 30 min. After washing with washing buffer (3×200 μL), 1% SDS (100 μL) is added to each well and the plates are shaken lightly for 1 hr prior to measuring the absorbance at 595 nm (Varioskan® Flash, Thermo-Fisher Scientific).
The measured OD450-655 readings are corrected for cell number by dividing the OD450-655 by the OD595 readings. […] A signal less than 0.15 (15%) of that observed for the standard control is designated as “-ve”.

[7] = Hepatic microsomal stability; format: in vitro ADME; conditions: scaled from intrinsic clearance, mean of two experiments
Description: as §2, §1

Sequence of GSK 3α (P49840 whole entry): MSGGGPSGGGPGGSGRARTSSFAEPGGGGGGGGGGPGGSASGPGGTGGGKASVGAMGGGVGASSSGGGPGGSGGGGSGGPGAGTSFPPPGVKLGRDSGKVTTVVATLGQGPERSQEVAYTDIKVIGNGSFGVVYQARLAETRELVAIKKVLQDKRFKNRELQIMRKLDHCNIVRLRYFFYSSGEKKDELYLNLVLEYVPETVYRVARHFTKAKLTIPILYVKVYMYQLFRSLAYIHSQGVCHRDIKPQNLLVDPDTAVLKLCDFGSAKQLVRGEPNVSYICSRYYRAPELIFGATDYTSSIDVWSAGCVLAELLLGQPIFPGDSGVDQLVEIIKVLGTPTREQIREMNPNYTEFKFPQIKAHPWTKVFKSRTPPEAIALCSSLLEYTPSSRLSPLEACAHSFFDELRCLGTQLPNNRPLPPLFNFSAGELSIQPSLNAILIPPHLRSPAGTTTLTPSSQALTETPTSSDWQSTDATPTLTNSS
T1 sequence (Q16539 whole entry, canonical isoform): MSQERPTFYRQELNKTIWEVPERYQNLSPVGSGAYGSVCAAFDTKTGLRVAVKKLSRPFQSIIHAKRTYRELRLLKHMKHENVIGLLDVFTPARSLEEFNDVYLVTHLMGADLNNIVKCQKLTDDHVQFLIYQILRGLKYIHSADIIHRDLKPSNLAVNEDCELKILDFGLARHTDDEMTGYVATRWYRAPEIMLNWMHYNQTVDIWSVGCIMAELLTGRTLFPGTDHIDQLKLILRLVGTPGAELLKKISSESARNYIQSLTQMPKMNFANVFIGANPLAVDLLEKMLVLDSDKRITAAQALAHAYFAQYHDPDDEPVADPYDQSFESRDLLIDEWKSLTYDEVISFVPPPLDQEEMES

COc1cc(Nc2nccc(Oc3ccc(NC(=O)Nc4cc(C(C)C)nn4-c4ccc(C)cc4)c4ccccc34)n2)cc(C(=O)NCCN2CCOCC2)c1 [Example 8, 3-((4-((4-(3-(3-Isopropyl-1-(p-tolyl)-1H-pyrazol-5-yl)ureido)naphthalen-1-yl)oxy)pyrimidin-2-yl)amino)-5-methoxy-N-(2-morpholinoethyl)benzamide]
IC50 [1]: 0.044 µM | IC50 (GSK 3α): 13.2 µM | % inhibition Macrophage in BAL (mice; 1.6 μg/mL): 29% | % inhibition Neutrophil in BAL (mice; 1.6 μg/mL): 28% | Cell numbers in BAL Macrophage (mice; 1.6 μg/mL): 14.0 ± 0.50 ×10^4/mL | Cell numbers in BAL Neutrophil (mice; 1.6 μg/mL): 13.6 ± 0.51 ×10^4/mL | % inhibition Macrophage in BAL (mice; 8 μg/mL): 50% | % inhibition Neutrophil in BAL (mice; 8 μg/mL): 49% | Cell numbers in BAL Macrophage (mice; 8 μg/mL): 10.9 ± 0.42 ×10^4/mL | Cell numbers in BAL Neutrophil (mice; 8 μg/mL): 10.2 ± 0.33 ×10^4/mL | % inhibition Macrophage in BAL (mice; 40 μg/mL): 67% | % inhibition Neutrophil in BAL (mice; 40 μg/mL): 61% | Cell numbers in BAL Macrophage (mice; 40 μg/mL): 8.3 ± 0.38 ×10^4/mL | Cell numbers in BAL Neutrophil (mice; 40 μg/mL): 8.2 ± 0.58 ×10^4/mL | % inhibition Macrophage in BAL (mice; 200 μg/mL): 83% | % inhibition Neutrophil in BAL (mice; 200 μg/mL): 77% | Cell numbers in BAL Macrophage (mice; 200 μg/mL): 5.9 ± 0.31 ×10^4/mL | Cell numbers in BAL Neutrophil (mice; 200 μg/mL): 5.6 ± 0.39 ×10^4/mL | IC50 [2]: 0.002 µM | % inhibition of neutrophil numbers in BAL (Balb/c mice; 0.05 mg/mL, pre-dose time 2 hr): 40% | Neutrophil numbers in BAL (Balb/c mice; 0.05 mg/mL, pre-dose time 2 hr, mean +/− SEM): 9.6 ± 2.0 ×10^5/mL | % inhibition of neutrophil numbers in BAL (Balb/c mice; 0.2 mg/mL, pre-dose time 2 hr): 59% | Neutrophil numbers in BAL (Balb/c mice; 0.2 mg/mL, pre-dose time 2 hr, mean +/− SEM): 6.6 ± 1.4 ×10^5/mL | % inhibition of neutrophil numbers in BAL (Balb/c mice; 0.2 mg/mL, pre-dose time 12 hr): 43% | Neutrophil numbers in BAL (Balb/c mice; 0.2 mg/mL, pre-dose time 12 hr, mean +/− SEM): 9.1 ± 1.7 ×10^5/mL | % inhibition of neutrophil numbers in BAL (Balb/c mice; 0.2 mg/mL, pre-dose time 18 h): 9% | Neutrophil numbers in BAL (Balb/c mice; 0.2 mg/mL, pre-dose time 18 h, mean +/− SEM): 14.6 ± 2.5 ×10^5/mL | % inhibition of neutrophil numbers in BAL (Balb/c mice; 1.0 mg/mL, pre-dose time 2 hr): 77% | Neutrophil numbers in BAL (Balb/c mice; 1.0 mg/mL, pre-dose time 2 hr, mean +/− SEM): 3.7 ± 0.61 ×10^5/mL | % inhibition of neutrophil numbers in BAL (Balb/c mice; test substance at 0.2 mg/mL, dosed 8 hr pre-LPS challenge): 57% | Neutrophil numbers in BAL (Balb/c mice; test substance at 0.2 mg/mL, dosed 8 hr pre-LPS challenge, +/−SEM): 6.1 ± 1.2 ×10^5/mL | Cell viability at time point in d-U937 cells 4 h ([3]; 4 h): −ve (−ve and +ve indicate that the value is below and above respectively, the no significant effect threshold, defined as 30% inhibition at 1 μg/mL at the time point indicated.) | Cell viability at time point in d-U937 cells 24 h ([3]; 24 h): −ve (−ve and +ve indicate that the value is below and above respectively, the no significant effect threshold, defined as 30% inhibition at 1 μg/mL at the time point indicated.)

C#Cc1cc(Nc2nccc(Oc3ccc(NC(=O)Nc4cc(C(C)(C)C)nn4-c4ccc(N(C)C)cc4)c4ccccc34)n2)cc(C(=O)NCCN2CCOCC2)c1 [Example 80, 3-((4-((4-(3-(3-(tert-Butyl)-1-(4-(dimethylamino)phenyl)-1H-pyrazol-5-yl)ureido)naphthalen-1-yl)oxy)pyrimidin-2-yl)amino)-5-ethynyl-N-(2-morpholinoethyl)-benzamide]
IC50 [1]: 0.437 µM | IC50 (GSK 3α): 12.6 µM | Mean hepatic extraction ratio (Eh) ([4]; dog hepatocytes): 0.73 | Mean hepatic extraction ratio (Eh) ([4]; human hepatocytes): <0.61 | Mean hepatic extraction ratio (Eh) ([4]; rat hepatocytes): <0.44 | hepatic clearance ([5]; conclusion from Tables 9a and 9b (hepatic microsomes and hepatocytes)): high hepatic clearance | Mean hepatic extraction ratio (Eh) ([5]; human hepatic microsomes, scaled from intrinsic clearance, mean of two experiments): 0.93 | % β-catenin induction ([6]; 1 μg/mL test compound): 14% | % β-catenin induction ([6]; 5 μg/mL test compound): 8% | Mean hepatic extraction ratio (Eh) ([7]; dog hepatic microsomes): 0.91 | Mean hepatic extraction ratio (Eh) ([7]; rat hepatic microsomes): 0.77

C#Cc1cc(Nc2nccc(Oc3ccc(NC(=O)Nc4cc(C(C)(C)C)nn4-c4ccc(OC)cc4)c4ccccc34)n2)cc(C(=O)NCCOC)c1 [Example 84, 3-((4-((4-(3-(3-(tert-Butyl)-1-(4-methoxyphenyl)-1H-pyrazol-5-yl)ureido)-naphthalen-1-yl)oxy)pyrimidin-2-yl)amino)-5-ethynyl-N-(2-methoxyethyl)benzamide]
IC50 [1]: 0.105 µM | IC50 (GSK 3α): 13.8 µM | % β-catenin induction ([6]; 1 μg/mL test compound): 3% | % β-catenin induction ([6]; 5 μg/mL test compound): 3% | % β-catenin induction ([6]; 10 μg/mL test compound): 5%

Reference: patent US9701670B2, “Pyrazolyl-ureas as kinase inhibitors” (RESPIVERT LIMITED, priority 2013, dated 2017)
